From ChEMBL document CHEMBL4371019, “Sanguiin H-11 from Sanguisorbae radix protects HT22 murine hippocampal cells against glutamate-induced death” (2019) come the findings set out here.

The term inhibition denotes the change of the read-out against control, counted positive when it falls.

Test [1] has as its system HT-22. Briefly: Neuroprotective activity against glutamate-induced neuronal cell death in mouse HT22 cells assessed as increase in cell viability at 0.5 to 5 uM after 24 hrs by MTT assay. It counts as functional, cell-based.
Test [2] relates to HT-22. Briefly: Neuroprotective activity against glutamate-induced neuronal cell death in mouse HT22 cells at 10 to 20 uM by microscopic analysis. In kind it is functional, cell-based.
Test [3] relates to HT-22. The test can be described thus: Neuroprotective activity against glutamate-induced neuronal cell death in mouse HT22 cells assessed as increase in cell viability at 20 to 50 uM after 24 hrs by MTT assay. In kind it is functional, cell-based.
Test [4] is described as follows: Antioxidant activity assessed as DPPH free radical scavenging activity up to 15 uM incubated for 30 mins. It counts as functional.
The test system of test [5] is HT-22. The test can be described thus: Antioxidant activity in mouse HT22 cells assessed as reduction in glutamate-induced increase in intracellular reactive oxygen species level at 10 to 20 uM after 8 hrs by H2DCFDA staining based fluorescence microscopic analysis. In kind it is functional, cell-based.
Test [6] has as its system HT-22. The test can be described thus: Neuroprotective activity against glutamate-induced neuronal cell death in mouse HT22 cells assessed as reduction in intracellular calcium level at 10 to 20 uM after 8 hrs by fluorescence microscopic analysis. It counts as functional, cell-based.
For test [7], the target named is Mitogen-activated protein kinase 1 and 3 (ERK2 and ERK1) (Mus musculus) (UniProt P63085+Q63844). The test can be described thus: Inhibition of glutamate-induced ERK1/2 phosphorylation in mouse HT22 cells at 10 to 20 after 8 hrs by Western blot analysis. In kind it is cell-based.
The species entered for the next test is Mus musculus. The test can be described thus: Inhibition of glutamate-induced JNK phosphorylation in mouse HT22 cells at 10 to 20 after 8 hrs by Western blot analysis. In kind it is cell-based.
Test [8] deals with MAP kinase p38 (Mus musculus) (UniProt P47811+O08911+Q9WUI1+Q9Z1B7). Briefly: Inhibition of glutamate-induced p38 MAPK phosphorylation in mouse HT22 cells at 10 to 20 after 8 hrs by Western blot analysis. It counts as cell-based. For orientation: In western blotting, separated proteins are transferred to a membrane and probed.
Test [9] concerns HT-22. The test can be described thus: Inhibition of glutamate-induced apoptosis in mouse HT22 cells assessed as apoptotic cells at 10 uM after 12 hrs by AlexaFluor 488-Annexin V/propidium iodide staining-based assay (reference value: 54%). In kind it is functional. As to conditions: HT-22, 12 h.
Test [10] concerns HT-22. The test can be described thus: Inhibition of glutamate-induced apoptosis in mouse HT22 cells assessed as apoptotic cells at 20 uM after 12 hrs by AlexaFluor 488-Annexin V/propidium iodide staining-based assay (reference value: 54%). It counts as functional. As to conditions: HT-22, 12 h.

Structures are written as SMILES. Active and inactive are the calls of the source. The rule behind the calls is not given here.

Mitogen-activated protein kinase 1 and 3 (ERK2 and ERK1) (Mus musculus), sequence (P63085 whole entry, looked up): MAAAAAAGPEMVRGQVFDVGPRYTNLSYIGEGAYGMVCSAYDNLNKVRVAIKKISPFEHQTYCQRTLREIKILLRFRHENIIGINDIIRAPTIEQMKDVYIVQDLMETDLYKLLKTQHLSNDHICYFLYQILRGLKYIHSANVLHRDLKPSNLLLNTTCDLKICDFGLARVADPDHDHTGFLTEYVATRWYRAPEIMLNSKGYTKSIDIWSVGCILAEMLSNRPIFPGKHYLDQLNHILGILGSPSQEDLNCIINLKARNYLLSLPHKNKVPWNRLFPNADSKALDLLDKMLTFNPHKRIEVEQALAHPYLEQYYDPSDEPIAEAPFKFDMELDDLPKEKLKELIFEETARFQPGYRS
Mitogen-activated protein kinase 1 and 3 (ERK2 and ERK1) (Mus musculus), sequence (Q63844 whole entry, looked up): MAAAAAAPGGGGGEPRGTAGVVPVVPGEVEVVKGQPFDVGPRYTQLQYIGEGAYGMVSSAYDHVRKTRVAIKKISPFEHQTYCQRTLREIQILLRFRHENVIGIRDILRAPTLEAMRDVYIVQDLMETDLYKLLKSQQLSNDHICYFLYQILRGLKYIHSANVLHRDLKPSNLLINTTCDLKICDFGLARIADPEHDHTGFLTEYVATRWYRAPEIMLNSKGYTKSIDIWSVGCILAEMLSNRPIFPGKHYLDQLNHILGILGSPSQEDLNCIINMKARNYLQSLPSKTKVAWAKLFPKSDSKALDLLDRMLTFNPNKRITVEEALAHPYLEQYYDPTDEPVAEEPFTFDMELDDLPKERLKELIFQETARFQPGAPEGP

For the molecule `CC(=O)N[C@@H](CS)C(=O)O`, the outcome in the test with HT-22 [1] was Active.
Regarding `O=C(O[C@@H]1O[C@@H]2COC(=O)c3cc(O)c(O)c(O)c3-c3c(cc(O)c(O)c3O)C(=O)O[C@H]2[C@@H]2OC(=O)c3cc(O)c(O)c(O)c3-c3c(cc(O)c(O)c3O)C(=O)O[C@@H]12)c1cc(O)c(O)c(O)c1`, the result (in the test on HT-22 [2]; in the test with HT-22 [3]; in test [4]; in the test with HT-22 [5]; in the test with HT-22 [6]) was Active. Moreover, the inhibition entry (in [7]; in the test filed under Mus musculus; in [8]) was “Active” in each case. For the same molecule, the inhibition at 10 µM with HT-22 [9] was found to be 12.7%. For the same molecule, the inhibition at 20 µM in the test with HT-22 [10] is 8.5%.
